PubChem BioAssay (NCI)
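Exposure lasted 48 hours, with cells grown in 96-well plates and compounds tested at five concentrations. GI50 is the concentration that inhibits growth by half. Definition used: TGI = concentration required for complete inhibition of growth.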

Columns and labels:
Experiment in all cases: NCI anticancer screen, dose series, 48 h
[1] = system: 786-0 renal
[2] = system: A498 renal
[3] = system: A549 NSCLC
[4] = system: ACHN renal
[5] = system: BT-549 breast
[6] = system: CAKI-1 renal
[7] = system: CCRF-CEM leukemia
[8] = system: COLO 205 colon
[9] = system: DU-145 prostate
[10] = system: EKVX NSCLC
[11] = system: HCC-2998 colon
[12] = system: HCT-116 colon
[13] = system: HCT-15 colon
[14] = system: HL-60(TB) leukemia
[15] = system: HOP-62 NSCLC
[16] = system: HOP-92 NSCLC
[17] = system: HS 578T breast
[18] = system: HT29 colon
[19] = system: IGROV1 ovarian
[20] = system: K-562 leukemia
[21] = system: KM12 colon
[22] = system: LOX IMVI melanoma
[23] = system: M14 melanoma
[24] = system: MALME-3M melanoma
[25] = system: MCF7 breast
[26] = system: MDA-MB-231 breast
[27] = system: MDA-MB-435
[28] = system: MOLT-4 leukemia
[29] = system: NCI-H226 lung
[30] = system: NCI-H23 lung
[31] = system: NCI-H460 lung
[32] = system: NCI-H522 lung
[33] = system: NCI/ADR-RES ovarian
[34] = system: OVCAR-3 ovarian
[35] = system: OVCAR-4 ovarian
[36] = system: OVCAR-5 ovarian
[37] = system: OVCAR-8 ovarian
[38] = system: PC-3 prostate
[39] = system: RPMI-8226 leukemia
[40] = system: RXF 393 renal
[41] = system: SF-268 CNS
[42] = system: SF-295 CNS
[43] = system: SF-539 CNS
[44] = system: SK-MEL-28 melanoma
[45] = system: SK-MEL-5 melanoma
[46] = system: SK-OV-3 ovarian
[47] = system: SN12C renal
[48] = system: SNB-19 CNS
[49] = system: SNB-75 CNS
[50] = system: SR leukemia
[51] = system: SW-620 colon
[52] = system: T-47D breast
[53] = system: TK-10 renal
[54] = system: U251 CNS
[55] = system: UACC-257 melanoma
[56] = system: UACC-62 melanoma
[57] = system: UO-31 renal

`COc1ccc([C@@H]2[C@@H](O)C(=O)N2c2cc(OC)c(OC)c(OC)c2)cc1Cl` was tested, and the GI50 [1] was < 19.8 nM, the TGI [1] was > 100 µM and the GI50 [2] was 21.7 µM. For the same compound, the TGI [2] was > 100 µM, the GI50 [3] was < 19.3 nM and the TGI [3] was > 100 µM. For the same compound, the GI50 [4] was < 14.4 nM, the TGI [4] was > 100 µM and the GI50 [5] was < 14.4 nM. For the same compound, the TGI [5] was 66.8 nM, the GI50 [6] was < 12.2 nM and the GI50 [7] was < 18.5 nM. The TGI [7] was > 100 µM, the GI50 [8] was < 15.6 nM and the TGI [8] was < 23.9 nM. The GI50 [9] was < 19 nM, the TGI [9] was > 100 µM and the TGI [10] was > 100 µM. For the same compound, the GI50 [11] was < 19.4 nM, the GI50 [12] was < 14.9 nM and the TGI [12] was > 100 µM. For the same compound, the GI50 [13] was < 16.9 nM, the TGI [13] was > 100 µM and the GI50 [14] was < 15.9 nM. For the same compound, the TGI [14] was 1830 nM, the GI50 [15] was < 20.1 nM and the TGI [15] was > 100 µM. For the same compound, the GI50 [16] was 16.2 µM, the TGI [16] was > 100 µM and the GI50 [17] was < 22.6 nM. For the same compound, the TGI [17] was > 100 µM, the GI50 [18] was < 10 nM and the GI50 [19] was < 20.3 nM. The TGI [19] was > 100 µM, the GI50 [20] was < 14.3 nM and the TGI [20] was > 100 µM. For the same compound, the GI50 [21] was < 16.3 nM, the TGI [21] was > 100 µM and the GI50 [22] was < 11.4 nM. The TGI [22] was > 100 µM, the GI50 [23] was < 17.1 nM and the TGI [23] was > 100 µM. The GI50 [24] was 219 nM, the TGI [24] was > 100 µM and the GI50 [25] was < 10 nM. For the same compound, the TGI [25] was > 92 µM, the GI50 [26] was < 18.7 nM and the TGI [26] was > 100 µM. For the same compound, the GI50 [27] was < 10 nM, the TGI [27] was 24.8 nM and the GI50 [28] was < 20 nM. For the same compound, the TGI [28] was > 100 µM, the GI50 [29] was < 10 nM and the TGI [29] was 75.3 nM. For the same compound, the GI50 [30] was 35.3 nM, the TGI [30] was > 100 µM and the GI50 [31] was < 18.9 nM. The GI50 [32] was < 10 nM, the TGI [32] was < 17.2 nM and the GI50 [33] was < 15.2 nM. For the same compound, the TGI [33] was 95.9 nM, the GI50 [34] was < 10 nM and the TGI [34] was 171 nM. The GI50 [35] was 2160 nM, the TGI [35] was > 100 µM and the GI50 [36] was < 18.6 nM. The TGI [36] was > 100 µM, the GI50 [37] was < 17.9 nM and the GI50 [38] was < 19.7 nM. For the same compound, the TGI [38] was > 100 µM, the GI50 [39] was < 21.7 nM and the GI50 [40] was 43.1 nM. The TGI [40] was > 100 µM, the GI50 [41] was < 21.6 nM and the TGI [41] was > 100 µM. For the same compound, the GI50 [42] was < 11.1 nM, the TGI [42] was > 100 µM and the GI50 [43] was < 10 nM. The TGI [43] was 49.1 nM, the GI50 [44] was 146 nM and the TGI [44] was > 100 µM. The GI50 [45] was < 14.9 nM, the TGI [45] was 38 nM and the GI50 [46] was < 22.9 nM. The TGI [46] was > 51.3 µM, the GI50 [47] was < 19.3 nM and the TGI [47] was > 100 µM. The GI50 [48] was < 24.1 nM, the TGI [48] was > 100 µM and the GI50 [49] was 26.2 nM. The TGI [49] was > 100 µM, the GI50 [50] was < 10.7 nM and the TGI [50] was > 100 µM. The GI50 [51] was < 19.2 nM, the TGI [51] was > 100 µM and the GI50 [52] was 33.1 µM. For the same compound, the TGI [52] was > 100 µM, the GI50 [53] was > 54.9 µM and the TGI [53] was > 100 µM. For the same compound, the GI50 [54] was < 17.8 nM, the TGI [54] was > 100 µM and the GI50 [55] was > 100 µM. For the same compound, the TGI [55] was > 100 µM, the GI50 [56] was < 10 nM and the TGI [56] was > 100 µM. The GI50 [57] was < 23.6 nM and the TGI [57] was > 100 µM.
